Laboratory results reported in patent US20080107623A1, “Inhibitors of Hepatitis C Virus” (Bristol-Myers Squibb Company, priority 2006, published 2008).
Read-outs that look alike come from different tables or passages of the source.

Experiments:
[1] = test system: HCV replicon in HUH-7 cells; test: HCV replicon FRET assay; format: cell-based, HCV strain 1b; details: Hepatitis C virus
From the text: An HCV replicon whole cell system was established as described by Lohmann V, Korner F, Koch J, Herian U, Theilmann L, Bartenschlager R., Science 285(5424):110-3 (1999). This system enabled us to evaluate the effects of our HCV Protease compounds on HCV RNA replication. Briefly, using the HCV strain 1b sequence described in the Lohmann paper (Assession number: AJ238799), an HCV cDNA was synthesized by Operon Technologies, Inc. (Alameda, Calif.), and the full-length replicon was then assembled in plasmid pGem9zf(+) (Promega, Madison, Wis.) using standard molecular biology techniques. The replicon consists of (i) the HCV 5′ UTR fused to the first 12 amino acids of the capsid protein, (ii) the neomycin phosphotransferase gene (neo), (iii) the IRES from encephalomyocarditis virus (EMCV), and (iv) HCV NS3 to NS5B genes and the HCV 3′ UTR. Plasmid DNAs were linearized with ScaI and RNA transcripts were synthesized in vitro using the T7 MegaScript transcription kit (Ambion, Austin, Tex.) according to manufacturer's directions. In vitro transcripts of the cDNA were transfected into the human hepatoma cell line, HUH-7. […] Resulting cell lines were characterized for positive and negative strand RNA production and protein production over time.
The HCV replicon FRET assay was developed to monitor the inhibitory effects of compounds described in the disclosure on HCV viral replication. HUH-7 cells, constitutively expressing the HCV replicon, were grown in Dulbecco's Modified Eagle Media (DMEM) (Gibco-BRL) containing 10% Fetal calf serum (FCS) (Sigma) and 1 mg/ml G418 (Gibco-BRL). Cells were seeded the night before (1.5×10^4 cells/well) in 96-well tissue-culture sterile plates. Compound and no compound controls were prepared in DMEM containing 4% FCS, 1:100 Penicillin/Streptomysin (Gibco-BRL), 1:100 L-glutamine and 5% DMSO in the dilution plate (0.5% DMSO final concentration in the assay). Compound/DMSO mixes were added to the cells and incubated for 4 days at 37° C. After 4 days, cells were first assessed for cytotoxicity using alamar Blue (Trek Diagnotstic Systems) for a CC50 reading. The toxicity of compound (CC50) was determined by adding 1/10th volume of alamar Blue to the media incubating the cells. After 4 hours, the fluorescence signal from each well was read, with an excitation wavelength at 530 nm and an emission wavelength of 580 nm, using the Cytofluor Series 4000 (Perspective Biosystems). Plates were then rinsed thoroughly with Phosphate-Buffered Saline (PBS) (3 times 150 μl). The cells were lysed with 25 μl of a lysis assay reagent containing an HCV protease substrate (5× cell Luciferase cell culture lysis reagent (Promega #E153A) diluted to 1× with distilled water, NaCl added to 150 mM final, the FRET peptide substrate (as described for the enzyme assay above) diluted to 10 μM final from a 2 mM stock in 100% DMSO. […]. The plate was then placed into the Cytofluor 4000 instrument which had been set to 340 nm excitation/490 nm emission, automatic mode for 21 cycles and the plate read in a kinetic mode. EC50 determinations were carried out as described for the IC50 determinations.

[2] = target: T1, human neutrophil elastase (HNE) (Homo sapiens, UniProt P08246); test: Specificity assay, elastase (pNA substrate); format: biochemical; details: read-out: HLE activity in the specificity assay (IC50)
T1 construct: purchased Sigma or EMDbiosciences
T1 sequence (P08246 30-267): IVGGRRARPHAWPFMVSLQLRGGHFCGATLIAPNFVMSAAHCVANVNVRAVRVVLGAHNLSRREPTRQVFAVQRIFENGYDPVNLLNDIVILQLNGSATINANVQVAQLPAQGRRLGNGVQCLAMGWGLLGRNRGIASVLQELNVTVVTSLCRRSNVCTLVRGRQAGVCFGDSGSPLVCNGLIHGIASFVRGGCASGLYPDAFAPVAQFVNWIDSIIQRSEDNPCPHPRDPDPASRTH
Description: (§1) The specificities of compounds of the present disclosure were determined against a variety of serine proteases: human neutrophil elastase (HNE), porcine pancreatic elastase (PPE) and human pancreatic chymotrypsin and one cysteine protease: human liver cathepsin B. In all cases, a 96-well plate format protocol using colorimetric p-nitroaniline (pNA) substrate or fluorometric Amino-Methyl-Coumarin (AMC) substrate, specific for each enzyme was used as described previously (PCT Patent Application No. WO 00/09543) with some modifications. All enzymes were purchased from Sigma or EMDbiosciences while the substrates were from Bachem.
(§2) Each pNA assay included a 2 h enzyme-inhibitor pre-incubation at room temperature followed by addition of substrate and hydrolysis to ˜15% conversion as measured on a Spectramax Pro microplate reader. The cathepsin B assay was initiated by adding substrate to a 10 min enzyme-inhibitor pre-incubation at room temperature, and the assay plate measured immediately using the Cytofluor Series 4000. Compound concentrations varied from 100 to 0.4 μM depending on their potency.
(§3) 50 mM Tris(hydroxymethyl)aminomethane hydrochloride (Tris-HCl) pH 8, 0.5 M Sodium Sulfate (Na2SO4), 50 mM NaCl, 0.1 mM EDTA, 3% DMSO, 0.01% Tween-20 with: […]
(§4) The percentage of inhibition was calculated using the formula: [1−((UVinh−UVblank)/(UVctl−UVblank))]×100 […]

[3] = test system: human pancreatic chymotrypsin; test: Specificity assay, chymotrypsin (pNA substrate); format: biochemical
Description: as §1, §2, §3, §4

human liver cathepsin B = target: T2, human liver cathepsin B (Homo sapiens, UniProt P07858); test: Specificity assay, cathepsin B (AMC substrate); format: biochemical
T2 construct: purchased Sigma or EMDbiosciences; host or cells: human liver (as named)
Description: as §1
as §2, with “potency. […]” for “potency.”
as §4

`COc1c(O[C@@H]2C[C@H]3C(=O)N[C@]4(C(=O)NS(=O)(=O)C5CC5)C[C@H]4/C=C\CCCCC[C@H](NC(=O)OC(C)(C)C)C(=O)N3C2)ccc2c(Cl)nccc12` [Compound 3] showed an EC50 ([1]; 96 h, HUH-7 replicon cells, 4 days, read-out: EC50 in the replicon FRET assay) of 0.0146 µM, an EC50 ([1]; Huh-7, HCV replicon, which replicon assay not stated, read-out: EC50 Activity Range) of under 0.1 µM and an IC50 [2] of over 25 µM. It also gave an IC50 [3] of over 100 µM and an IC50 (human liver cathepsin B) of at least 100 µM.
